Test results reported in paper PMC6151650, “The Native Fruit Geoffroea decorticans from Arid Northern Chile: Phenolic Composition, Antioxidant Activities and In Vitro Inhibition of Pro-Inflammatory and Metabolic Syndrome-Associated Enzymes” (Molecules : A Journal of Synthetic Chemistry and Natural …, 2017).

Key:
[1] = Ferric-reducing antioxidant power (FRAP) assay; details: Trolox equivalents
Protocol: (§1) The ferric-reducing antioxidant power (FRAP) assay was carried out according to a previously described method. The cupric-reducing antioxidant capacity (CUPRAC) assay was performed according to literature. Results are expressed as mmoles Trolox equivalents/kg PEE. Catechin was used as a positive control in both assays.

[2] = Cupric-reducing antioxidant capacity (CUPRAC) assay; details: Trolox equivalents
Protocol: as §1

DPPH discoloration assay = test: DPPH discoloration assay
Protocol: (§2) The scavenging capacity of the G. decorticans PEEs was evaluated against the free radicals DPPH and superoxide anion. The discoloration of the DPPH radical was carried out according to literature. The scavenging of the superoxide anion was evaluated following a previously described method. Results are presented as the amount of extract that is able to scavenge 50% of the radicals (SC50, μg PEE/mL).

[3] = Scavenging of superoxide anion generated by xanthine oxidase; assay type: biochemical
Protocol: The superoxide anion generated by xanthine oxidase can be scavenged by polyphenols. In this assay, the flavonol catechin was used as a positive control, showing a SC50 of 8.7 ± 0.1 μg/mL. All G. decorticans fruit PEEs were able to scavenge the superoxide anion, with SC50 values between 14.5–44.2 μg/mL, with the exception of the sample from El Transito II that only scavenged 45.1% the radical at 50 μg/mL.
as §2

COX-1 = molecular target: T1, COX-1 (Ovis aries, UniProt P05979); test: Cyclooxygenase inhibition, commercial kit (COX-1); assay type: biochemical; details: at 50 μg/mL
T1 construct: purchased Cayman Chemical 560131
T1 sequence (P05979 25-600): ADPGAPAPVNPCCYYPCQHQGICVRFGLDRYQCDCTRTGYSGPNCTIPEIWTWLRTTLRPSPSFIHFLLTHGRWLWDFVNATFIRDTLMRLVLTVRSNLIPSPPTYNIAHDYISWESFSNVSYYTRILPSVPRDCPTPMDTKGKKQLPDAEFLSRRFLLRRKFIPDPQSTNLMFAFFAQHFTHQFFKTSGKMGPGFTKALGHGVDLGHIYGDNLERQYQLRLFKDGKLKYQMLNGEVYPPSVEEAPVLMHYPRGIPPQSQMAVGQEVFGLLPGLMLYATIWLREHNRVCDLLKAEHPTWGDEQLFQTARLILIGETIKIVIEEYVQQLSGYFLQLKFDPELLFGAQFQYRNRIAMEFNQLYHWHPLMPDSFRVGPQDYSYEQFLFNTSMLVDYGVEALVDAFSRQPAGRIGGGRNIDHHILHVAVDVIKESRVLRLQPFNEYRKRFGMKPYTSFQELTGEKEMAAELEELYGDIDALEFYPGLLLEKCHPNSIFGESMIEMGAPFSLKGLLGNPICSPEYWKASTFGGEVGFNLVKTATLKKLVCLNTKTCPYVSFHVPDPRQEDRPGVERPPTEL
Protocol: COX inhibitory activity was determined using a commercial kit (560131, Cayman Chemical, Ann Arbor, MI, USA). Enzyme and samples (50 μg PEE/mL) were pre-incubated during 10 min and then arachidonic acid was added. The reaction was conducted for exactly 2 min at 37 °C and halted in boiling water for 5 min. […] Results were expressed as a percentage of inhibition of PGF2α production. The commercial anti-inflammatory compound nimesulide was included as the reference compound [4].

COX-2 = molecular target: T2, COX-2 (Homo sapiens, UniProt P35354); test: Cyclooxygenase inhibition, commercial kit (COX-2); assay type: biochemical; details: read-out: COX-2% Inhibition
T2 construct: purchased Cayman Chemical 560131
T2 sequence (P35354 18-604): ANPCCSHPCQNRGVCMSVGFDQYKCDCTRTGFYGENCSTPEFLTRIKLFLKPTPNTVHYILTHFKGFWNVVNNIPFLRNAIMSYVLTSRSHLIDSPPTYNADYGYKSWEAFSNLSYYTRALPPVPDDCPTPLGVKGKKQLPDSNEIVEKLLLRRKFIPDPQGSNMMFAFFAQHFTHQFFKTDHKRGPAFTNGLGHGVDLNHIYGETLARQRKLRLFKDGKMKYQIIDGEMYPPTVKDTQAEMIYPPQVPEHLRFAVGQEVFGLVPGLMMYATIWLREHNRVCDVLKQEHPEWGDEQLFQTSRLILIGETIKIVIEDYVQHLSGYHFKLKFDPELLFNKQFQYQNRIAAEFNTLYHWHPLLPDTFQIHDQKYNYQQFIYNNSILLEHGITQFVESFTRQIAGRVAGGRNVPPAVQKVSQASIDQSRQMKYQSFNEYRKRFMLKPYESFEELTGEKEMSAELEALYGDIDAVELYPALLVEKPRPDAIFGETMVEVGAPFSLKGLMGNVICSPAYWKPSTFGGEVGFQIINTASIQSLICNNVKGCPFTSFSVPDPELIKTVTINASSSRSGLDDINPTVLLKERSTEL
Protocol: Enzyme and samples (50 μg PEE/mL) were pre-incubated during 10 min and then arachidonic acid was added. The reaction was conducted for exactly 2 min at 37 °C and halted in boiling water for 5 min. […] Results were expressed as a percentage of inhibition of PGF2α production.

sPLA2 = molecular target: T3, sPLA2 (Homo sapiens, UniProt P39877); test: Secretory phospholipase A2 inhibition, colorimetric kit; assay type: biochemical; details: read-out: sPLA2 % Inhibition
T3 construct: purchased Cayman Chemical 10004883
T3 sequence (P39877 21-138): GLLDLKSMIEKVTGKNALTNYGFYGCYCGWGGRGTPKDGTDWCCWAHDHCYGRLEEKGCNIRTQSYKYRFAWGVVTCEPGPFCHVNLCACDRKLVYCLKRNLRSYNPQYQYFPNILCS
Protocol: The sPLA2 inhibitory activity was determined using a colorimetric kit (10004883, Cayman Chemical). Enzyme and samples (200–100 μg PEE/mL) were mixed, and then the substrate (diheptanoyl Thio-PC) was added, and incubated during 15 min at 25 °C. Then, DTNB (Ellman’s reagent) was added and absorbance was read at 415 nm. Results are expressed as a percentage of inhibition or IC50 (μg PEE/mL). Ursolic acid was used as the reference compound [37].

porcine pancreas lipase = molecular target: porcine pancreas lipase; design: method as in PMID 28454959; details: commercial polyphenol standards; cited from earlier work

For O.Oc1cc(O)c2c(c1)O[C@H](c1ccc(O)c(O)c1)[C@@H](O)C2 [Catechin], which FRAP [1] is on record?
The FRAP was 5.4 ± 0.1 mmol TE/g PEE.

What about the CUPRAC [2] of the same molecule?
The CUPRAC was 13.4 ± 0.3 mmol TE/g PEE.

And the “DPPH SC50” value (DPPH discoloration assay; Table 1, fruit PEEs)?
The value was 11.4 ± 1.6 µg/mL.

What about the “DPPH SC50” value (DPPH discoloration assay; Table 4, Diego de Almagro PEE and Sephadex LH-20 fractions) of the same molecule?
Its value is 11.4 ± 1.6 µg/mL.

And the “O2 Scavenging SC50” value [3]?
The value was 8.7 ± 0.1 µg/mL.

For CS(=O)(=O)Nc1ccc([N+](=O)[O-])cc1Oc1ccccc1 [Nimesulide], which inhibition at 50 µg/mL (COX-1) is on record?
Its inhibition at 50 µg/mL is 100%.

And the inhibition at 50 µg/mL (COX-2)?
Its inhibition at 50 µg/mL is 100%.

Which inhibition at 50 µg/mL (sPLA2) does the source give for C[C@H]1[C@H](C)CC[C@]2(C(=O)O)CC[C@]3(C)C(=CC[C@@H]4[C@@]5(C)CC[C@H](O)C(C)(C)[C@@H]5CC[C@]43C)[C@H]12 [Ursolic acid] here?
Its inhibition at 50 µg/mL is 26.7 ± 0.7%.

Which IC50 (porcine pancreas lipase) does the source give for O=C(O[C@@H]1Cc2c(O)cc(O)cc2O[C@@H]1c1cc(O)c(O)c(O)c1)c1cc(O)c(O)c(O)c1 [epigallocatechin gallate] here?
The IC50 was 391 µM.

For Oc1cc(O)c2c(c1)O[C@H](c1cc(O)c(O)c(O)c1)[C@H](O)C2 [epigallocatechin], which IC50 (porcine pancreas lipase) is on record?
Its IC50 is 237 µM.

With O=C(O)c1cc(O)c(O)c(O)c1 [gallic acid] as the molecule, how does the IC50 (porcine pancreas lipase) read?
Its IC50 is 387 µM.
